Measured values reported in US7794994B2 (Kemeta, LLC, priority 2001, dated 2010).
Where “and” joins values, the source holds several entries; their conditions need not be identical. Equal entries are not always repeated.

What was measured:
[1] = system: S-ADH from X. autotrophicus strain Py2; experiment: Secondary alcohol dehydrogenase NADH oxidation spectrophotometric assay; format: biochemical, Xanthobacter autotrophicus strain Py2; conditions: for Relative S-ADH Activity (%) X. Py2, alcohol oxidation: alcohol oxidation rates, pH 7.6, 2.5 mM substrate, 0.2 mM NAD+, 2-propanol = 100, NA = no activity detected; for specific activity, alcohol oxidation: at pH 7.8; for inhibition of S-ADH activity: saturating acetone, alcohol at about 13-fold over the Km value for acetone, data not shown; for Relative S-ADH Activity (%) X. Py2, ketone reduction: ketone reduction rates, pH 6.2, 2.5 mM substrate, 0.2 mM NADH, acetone = 100
Protocol: (§1) Assays were performed in 2 mL quartz cuvettes and contained NAD(H) (0.2 mM), potassium phosphate buffer (25 mM), and a source of enzyme (cell-free extracts, column fractions, or purified enzyme) in a total reaction volume of 1 mL at pH 6.2 ([…]) at 30° C. Assays were pre-incubated for 1.5 min. at 30° C. with all assay components except substrate. Assays were initiated by addition of substrate (2.5 mM) and monitored over time by measuring the change in absorbance at 340 nm (∈340 of 6.22 mM^−1·cm^−1 for NADH).
Data analysis. Kinetic constants (Km and Vmax) were calculated by fitting initial rate data to the Michaelis-Menten equation and using the software KaleidaGraph Fourth Edition, (Synergy Software, Reading, Pa.).

[2] = system: S-ADH from strain IP-1; experiment: S-ADH spectrophotometric assay, partially purified S-ADH of isolate IP-1; format: biochemical, isopropanol-grown bacterial strain TDCC IP-1; conditions: for Relative S-ADH Activity (%) IP-1, alcohol oxidation: alcohol oxidation rates, pH 7.6, 2.5 mM substrate, 0.2 mM NAD+, 2-propanol = 100, NA = no activity detected; for Relative S-ADH Activity (%) IP-1, ketone reduction: ketone reduction rates, pH 6.2, 2.5 mM substrate, 0.2 mM NADH, acetone = 100
Protocol: Protein purifications. […] Secondary alcohol dehydrogenase (S-ADH) from X. autotrophicus Py2 was purified via the following protocol. Cell-free extracts (380 mL) of isopropanol-grown X. autotrophicus Py2 (150 g) were prepared as described above, and applied to a 5×15 cm column of DEAE-Sepharose FAST FLOW (Diethylaminoethyl cross-linked agarose bead material; Catalog number 17-0709-10, Amersham Pharmacia Biotech, Piscataway, N.J.)) equilibrated in buffer A (25 mM MOPS (3-(N-morpholino)propanesulfonic acid), pH 7.6, 5% glycerol, 1 mM dithiothreitol) at a flow rate of 10 mL/min. After loading, the column was washed with […] buffer A and developed with a 2400 mL linear gradient of 90-290 mM KCl in buffer A. Fractions containing S-ADH activity were pooled and dialyzed against 2 L of 25 mM potassium phosphate (pH 6.2) containing 5% glycerol (buffer B) for 16 h at 4° C. […] After washing the column with 30 mL of buffer B, S-ADH was eluted with 20 mL of buffer A containing 10 mM NAD^+. Fractions containing S-ADH were then dialyzed against 2 L of buffer A for 16 h at 4° C., concentrated by ultrafiltration (using a YM30 ultrafiltration membrane; catalog no. 13722, from Millipore, Bedford, Mass.), and frozen in liquid nitrogen. Partially purified S-ADH from bacterial screen cultures was prepared as follows: cell-free extracts from 1 to 5 g of cell paste were prepared as described above and applied to a 5 mL HI TRAP Q column (quaternary, tetraethylammonium, cross-linked agarose bead material for use as an anion exchange matrix; catalog number 17-1153-01, Amersham Pharmacia Biotech) equilibrated in 100 mM MOPS, pH 7.6, containing 5% (v/v) glycerol (buffer C). The column was washed with 10 mL buffer C and developed with a 100 mL linear gradient of 0 to 100 mM NaCl in buffer C. Fractions containing S-ADH activity were pooled, concentrated to 0.5 mL using a 30 kDa MWCO (“molecular weight cut-off”) centrifugal membrane (catalog number UFV4BTK25, Millipore), and stored at −80° C.
as §1

[3] = system: S-ADH from M. vaccae JOB-5; experiment: S-ADH spectrophotometric assay, propane-grown M. vaccae JOB-5; format: biochemical, Mycobacterium vaccae strain JOB-5; conditions: for Relative S-ADH Activity (%) JOB 5, alcohol oxidation: alcohol oxidation rates, pH 7.6, 2.5 mM substrate, 0.2 mM NAD+, 2-propanol = 100, NA = no activity detected; for Relative S-ADH Activity (%) JOB 5, ketone reduction: ketone reduction rates, pH 6.2, 2.5 mM substrate, 0.2 mM NADH, acetone = 100
Protocol: as §1

[4] = system: S-ADH from C. boidinii; experiment: S-ADH spectrophotometric assay, C. boidinii S-ADH; format: biochemical, Candida boidinii; conditions: pH 7.6, 5 mM substrate; for Relative S-ADH Activity (%) C. boidinii, alcohol oxidation: alcohol oxidation rates, 0.2 mM NAD+, 2-propanol = 100; for Relative S-ADH Activity (%) C. boidinii, ketone reduction: ketone reduction rates, 0.2 mM NADH, acetone = 100
Protocol: Assays were performed in 2 mL quartz cuvettes and contained NAD(H) (0.2 mM), potassium phosphate buffer (25 mM), and a source of enzyme (cell-free extracts, column fractions, or purified enzyme) in a total reaction volume of 1 mL at pH 6.2 ([…]) at 30° C. Assays were pre-incubated for 1.5 min. at 30° C. with all assay components except substrate. […]

[5] = system: 3-enzyme system (S-ADH coupled to lactate dehydrogenase and pyruvate oxidase); experiment: S-ADH coupled to H2O2 formation electrochemical assay (3-enzyme system), interference compounds; format: biochemical, X. autotrophicus Py2; conditions: for interference with the acetone measurement (current response): Acetone plus 10 mM ethanol, 50 μM isopropanol or 50 μM isobutanol, data not shown
Protocol: Secondary alcohol dehydrogenase coupled to H2O2 formation electrochemical assay. […] Before measurements the electrode surface was polished using Al2O3 paste for 1 min. and then rinsed with deionized water, sonicated for 1 min. and rinsed with water again. The polished Pt electrode was then pretreated electrochemically by applying 10 cycles of 100 mV/s from +200 mV to +900 mV. All potentials were referenced versus a Ag/AgCl electrode (BAS part number MF-2078). Assays contained potassium phosphate (100 mM, pH 7.2), purified S-ADH (1 U/mL), NADH (201 μM), lactate (100 mM), lactate dehydrogenase (5 U/mL), pyruvate oxidase (4 U/mL), flavin adenine dinucleotide (0.01 mM), cocarboxylase (0.2 mM), in a total volume of 0.5 mL. […] After a 2 min. incubation period, the potential was stepped from open circuit to 350 mV.

SMILES | Relative S-ADH Activity (%) X. Py2, alcohol oxidation [1] [%] | specific activity, alcohol oxidation [1] | Relative S-ADH Activity (%) IP-1, alcohol oxidation [2] [%] | Relative S-ADH Activity (%) JOB 5, alcohol oxidation [3] [%] | Relative S-ADH Activity (%) C. boidinii, alcohol oxidation [4] [%] | inhibition of S-ADH activity [1] | S-ADH activity in the presence of ethanol ([1]; 41 mM ethanol, equivalent to 500 ppm (v/v) gas phase ethanol) | interference with the acetone measurement (current response) [5] | Relative S-ADH Activity (%) X. Py2, ketone reduction [1] [%] | Relative S-ADH Activity (%) IP-1, ketone reduction [2] [%] | Relative S-ADH Activity (%) JOB 5, ketone reduction [3] [%] | Relative S-ADH Activity (%) C. boidinii, ketone reduction [4] [%] | current response relative to acetone ([5]; 50 μM butanone) | Km ([1]; reduction of acetone to isopropanol, NADH at fixed saturating concentration, read-out: apparent Km)
CCC(C)O (centres unmarked) [2-Butanol] | 88 | 21±3.6 μmol alcohol oxidized min^−1mg^−1 protein and 37±1.1 μmol alcohol oxidized min^−1mg^−1 protein | 147 | 130 | 100 | – | – | – | – | – | – | – | – | –
CCCO [1-Propanol] | – | No activity | 2 | 9 | 9 | no inhibition was observed | – | – | – | – | – | – | – | –
CCO [Ethanol] | – | No activity | 9 | – | 9 | no inhibition was observed | 82-85% | do not interfere | – | – | – | – | – | –
CCC(C)=O [2-Butanone] | – | – | – | – | – | – | – | – | 170 | 192 | 213 | 175 | equivalent to 50 μM acetone | –
CC(C)O [2-Propanol] | 100 | 24±1.8 μmol alcohol oxidized min^−1mg^−1 protein | 100 | 100 | 100 | – | – | do not interfere | – | – | – | – | – | –
CC(C)=O [Acetone, acetone] | – | – | – | – | – | – | – | – | 100 | 100 | 100 | 100 | – | ~144 µM and 144 µM
